According to the C3SDB collision cross section collection:
Blank lines part the entries; values can stand above or below the compound they belong to.

Conditions: instrument: DT, stepped-field

Structure (SMILES): CC/C=C\C/C=C\C/C=C\C/C=C\C/C=C\C/C=C\CCC(=O)O[C@H](COC(=O)CCCCCCC/C=C\C/C=C\C/C=C\CC)COP(=O)(O)OC[C@H](N)C(=O)O [PS(40:09)]
collision cross section (N2) ([M+2Na-H]+): 284.82 Å²

Structure (SMILES): CCCCC/C=C\C/C=C\C/C=C\CCCCCCC(=O)OC[C@H](COP(=O)(O)OC[C@H](N)C(=O)O)OC(=O)CCCCCCCCC/C=C\CCCCCCCCCC [PS(42:04)]
collision cross section (N2) ([M+2Na-H]+): 304.19 Å²
collision cross section (N2) ([M+H]+): 296.39 Å²
collision cross section (N2) ([M+Na]+): 298.86 Å²

Structure (SMILES): CCCCC/C=C\C/C=C\CCCCCCCCCCCC(=O)O[C@H](COC(=O)CCCCCCC/C=C\CCCCCC)COP(=O)(O)OC[C@H](N)C(=O)O [PS(38:03)]
collision cross section (N2) ([M-H]-): 286.53 Å²

Structure (SMILES): CC/C=C\C/C=C\C/C=C\C/C=C\C/C=C\CCCCCC(=O)O[C@H](COC(=O)CCCCCCCCCCCCCCC)COP(=O)([O-])OCC[N+](C)(C)C [PC(38:05)]
collision cross section (N2) ([M+Cl]-): 297.1 Å²
collision cross section (N2) ([M+HCOO]-): 297.3 Å²

Structure (SMILES): CCCCC/C=C\C/C=C\CCCCCCCCCCCC(=O)O[C@H](COC(=O)CCCCCCCCC/C=C\CCCCCCCC)COP(=O)(O)OC[C@H](N)C(=O)O [PS(42:03)]
collision cross section (N2) ([M+H]+): 298.03 Å²

Structure (SMILES): CC/C=C\C/C=C\C/C=C\C/C=C\C/C=C\C/C=C\CCC(=O)O[C@H](COC(=O)CCCCCCCCCCCCCCCCC)COP(=O)(O)O [PA(40:06)]
collision cross section (N2) ([M+2Na-H]+): 280.58 Å²

Structure (SMILES): CCCCCCCCCCCCC=CC[C@@H](O)[C@H](CO[C@@H]1O[C@H](CO)[C@@H](O)C(O)C1O)NC(=O)CC=CCC=CCCCCCCCCCCCCC (some centres not stated) [GlcCer(38:03)]
collision cross section (N2) ([M+H]+): 284.43 Å²

Structure (SMILES): CC/C=C\C/C=C\C/C=C\C/C=C\C/C=C\C/C=C\CCC(=O)O[C@H](COCCCCCCCCCCCCCCCC)COP(=O)(O)OCCN [PE(o38:06)]
collision cross section (N2) ([M+2Na-H]+): 280.85 Å²

Structure (SMILES): CC/C=C\C/C=C\C/C=C\C/C=C\C/C=C\C/C=C\CCC(=O)O[C@H](COCCCCCCCCCCCCCCCCCC)COP(=O)(O)OCCN [PE(o40:06)]
collision cross section (N2) ([M+2Na-H]+): 288.19 Å²

Structure (SMILES): CC/C=C\C/C=C\C/C=C\C/C=C\CCCCC(=O)O[C@H](COC(=O)CCCCCCCCCCCCCCCCCCC)COP(=O)(O)OCCN [PE(38:04)]
collision cross section (N2) ([M+2Na-H]+): 284.96 Å²
collision cross section (N2) ([M+K]+): 284.45 Å²
collision cross section (N2) ([M-H]-): 276.04 Å²

Structure (SMILES): CCCCC/C=C\C/C=C\C/C=C\CCCCCCC(=O)OC[C@H](COP(=O)(O)OC[C@H](N)C(=O)O)OC(=O)CCCCCCCCCCC/C=C\C/C=C\CCCCC [PS(42:05)]
collision cross section (N2) ([M+2Na-H]+): 300.15 Å²
collision cross section (N2) ([M+H]+): 295.24 Å²
collision cross section (N2) ([M+Na]+): 297.67 Å²

Structure (SMILES): CCCCCCCC/C=C\CCCCCCCC(=O)OC[C@H](COP(=O)(O)OCCN)OC(=O)CCCCCCC/C=C\CCCCCCCCC [PE(37:02)]
collision cross section (N2) ([M+2Na-H]+): 285.18 Å²
collision cross section (N2) ([M+Na]+): 282.21 Å²

Structure (SMILES): CCCCC/C=C\C/C=C\C/C=C\C/C=C\CCCC(=O)O[C@H](COC(=O)CCCCCCCCC/C=C\CCCCCCCC)COP(=O)(O)OC[C@H](N)C(=O)O [PS(40:05)]
collision cross section (N2) ([M+2Na-H]+): 297.17 Å²
collision cross section (N2) ([M+H]+): 289.6 Å²
collision cross section (N2) ([M+K]+): 294.22 Å²
collision cross section (N2) ([M+Na]+): 293.82 Å²
collision cross section (N2) ([M-H]-): 290.27 Å²

Second part, the compound after the results:

collision cross section (N2) ([M+H]+): 274.03 Å²
Structure (SMILES): CCCCCCCCCCCCCCCCCCCCCC(=O)N[C@@H](CO)[C@H](O)CCCCCCCCCCCCCCC [Cer(40:00)]

collision cross section (N2) ([M+HCOO]-): 304.85 Å²
collision cross section (N2) ([M+H]+): 299.58 Å²
collision cross section (N2) ([M+Na]+): 297.59 Å²
Structure (SMILES): CCCCCCCCCCCCC=CC[C@@H](O)[C@H](COP(=O)([O-])OCC[N+](C)(C)C)NC(=O)CC=CCC=CCCCCCCCCCCCCCCCCC [SM(42:03)]

collision cross section (N2) ([M+Na]+): 295.77 Å²
Structure (SMILES): CC/C=C\C/C=C\C/C=C\C/C=C\C/C=C\CCCCCC(=O)O[C@H](COC(=O)CCCCCCCCCCCCCCCCC)COP(=O)([O-])OCC[N+](C)(C)C [PC(40:05)]

collision cross section (N2) ([M+H]+): 306.91 Å²
collision cross section (N2) ([M+Na]+): 304.16 Å²
Structure (SMILES): CCCCCCCCCCCCC=CC[C@@H](O)[C@H](COP(=O)([O-])OCC[N+](C)(C)C)NC(=O)CCCCCCCCCCCCCCCCCCCCCCCC [SM(43:01)]

collision cross section (N2) ([M+2Na-H]+): 283.23 Å²
collision cross section (N2) ([M+H]+): 277.08 Å²
collision cross section (N2) ([M+Na]+): 281.66 Å²
Structure (SMILES): CCCCCCCC/C=C\CCCCCCCCCC(=O)O[C@H](COCCCCCCCCCCCCCCCC)COP(=O)(O)OCCN [PE(o36:01)]

collision cross section (N2) ([M+Na]+): 296.1 Å²
Structure (SMILES): CCCCCCCCCCCCC=CC[C@@H](O)[C@H](CO[C@@H]1O[C@H](CO)[C@@H](O)C(O)C1O)NC(=O)CC=CCCCCCCCCCCCCCCCCCCC (some centres not stated) [GlcCer(41:02)]

collision cross section (N2) ([M+Cl]-): 293.08 Å²
collision cross section (N2) ([M+HCOO]-): 292.86 Å²
collision cross section (N2) ([M+Na]+): 285.05 Å²
Structure (SMILES): CC/C=C/C=C/C=C/C=C/CCCCCCCC(=O)O[C@H](COC(=O)CCCCCCCCCCCCCCCCC)COP(=O)([O-])OCC[N+](C)(C)C [PC(36:04)]

collision cross section (N2) ([M+Na]+): 278.95 Å²
Structure (SMILES): CCCCCCCCCCCCC=CC[C@@H](O)[C@H](CO[C@@H]1O[C@H](CO)[C@@H](O)C(O)C1O)NC(=O)CCCCCCCCCCCCCCC (some centres not stated) [GlcCer(34:01)]

collision cross section (N2) ([M+H]+): 304.47 Å²
collision cross section (N2) ([M+Na]+): 303.6 Å²
Structure (SMILES): CCCCCCCCCCCCC=CC[C@@H](O)[C@H](COP(=O)([O-])OCC[N+](C)(C)C)NC(=O)CC=CCCCCCCCCCCCCCCCCCCCCC [SM(43:02)]

collision cross section (N2) ([M+Cl]-): 301.5 Å²
collision cross section (N2) ([M+HCOO]-): 303.38 Å²
collision cross section (N2) ([M+H]+): 299.61 Å²
Structure (SMILES): CCCCCCCCCCCCCCCCCCCCCC(=O)N[C@@H](COP(=O)([O-])OCC[N+](C)(C)C)[C@H](O)CCCCCCCCCCCCCCC [SM(40:00)]

collision cross section (N2) ([M+HCOO]-): 286.82 Å²
collision cross section (N2) ([M+H]+): 278.4 Å²
collision cross section (N2) ([M+Na]+): 280.56 Å²
Structure (SMILES): CCCCCCCCCCCCCCCCCCCC(=O)OC[C@H](COP(=O)([O-])OCC[N+](C)(C)C)OC(=O)CCCCCCCCCCC [PC(32:00)]

collision cross section (N2) ([M+H-2H2O]+): 314.25 Å²
Structure (SMILES): CCCCCCCCCCCCC=CC[C@@H](O)[C@H](CO[C@@H]1O[C@H](CO)[C@@H](O)C(O)C1O)NC(=O)CC=CCC=CCC=CCCCCCCCCCCCCCCCCCCCCCC (some centres not stated) [GlcCer(50:04)]

collision cross section (N2) ([M+2Na-H]+): 283.74 Å²
collision cross section (N2) ([M+H]+): 277.02 Å²
collision cross section (N2) ([M+Na]+): 282.21 Å²
collision cross section (N2) ([M-H]-): 273.62 Å²
Structure (SMILES): CCCCCCCC/C=C\CCCCCCCC(=O)O[C@H](COC(=O)CCCCCCCCCCCCCCCCC)COP(=O)(O)OCCN [PE(36:01)]

collision cross section (N2) ([M+HCOO]-): 289.73 Å²
collision cross section (N2) ([M+H]+): 284.15 Å²
collision cross section (N2) ([M+Na]+): 280.32 Å²
Structure (SMILES): CCCCCCCCCCCCC=CC[C@@H](O)[C@H](COP(=O)([O-])OCC[N+](C)(C)C)NC(=O)CC=CCCCCCCCCCCCCCC [SM(36:02)]

collision cross section (N2) ([M+H]+): 287.87 Å²
collision cross section (N2) ([M+Na]+): 287.34 Å²
Structure (SMILES): CCCCCCCCCCCCC=CC[C@@H](O)[C@H](CO[C@@H]1O[C@H](CO)[C@@H](O)C(O)C1O)NC(=O)CC=CCCCCCCCCCCCCCCCC (some centres not stated) [GlcCer(38:02)]

collision cross section (N2) ([M+Cl]-): 293.17 Å²
collision cross section (N2) ([M+HCOO]-): 298.07 Å²
collision cross section (N2) ([M+H]+): 296.24 Å²
collision cross section (N2) ([M+Na]+): 297.72 Å²
Structure (SMILES): CCCCCCCCCCCCCCCCCCCCCC(=O)N[C@@H](CO[C@@H]1O[C@H](CO)[C@@H](O)C(O)C1O)[C@H](O)CCCCCCCCCCCCCCC (some centres not stated) [GlcCer(40:00)]
